The experiment has as its target T1, MAGL (Homo sapiens, UniProt Q99685).
T1 sequence (Q99685 1-303): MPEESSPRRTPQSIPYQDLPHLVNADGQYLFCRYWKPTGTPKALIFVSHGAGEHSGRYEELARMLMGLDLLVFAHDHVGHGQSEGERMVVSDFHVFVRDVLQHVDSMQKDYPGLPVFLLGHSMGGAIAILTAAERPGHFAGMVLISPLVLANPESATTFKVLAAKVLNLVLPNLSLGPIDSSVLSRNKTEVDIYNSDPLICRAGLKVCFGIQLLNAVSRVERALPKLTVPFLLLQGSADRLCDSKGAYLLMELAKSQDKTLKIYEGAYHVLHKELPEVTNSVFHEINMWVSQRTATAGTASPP
Briefly: 2-AG assay (MAGL inhibitory activity, hydrolysis of 2-arachidonoylglycerol followed by mass spectrometry). As to conditions: 15 min preincubation at RT, 8 μM 2-arachidonoylglycerol, 30 min at RT, arachidonic acid by MS. The class given is biochemical. On the procedure:
Compounds were profiled for MAGL inhibitory activity by determining the enzymatic activity by following the hydrolysis of the natural substrate 2-arachidonoylglycerol (2-AG) resulting in arachidonic acid, which can be followed by mass spectrometry. This assay is hereinafter abbreviated “2-AG assay”.
The 2-AG assay was carried out in 384 well assay plates (PP, Greiner Cat #784201) in a total volume of 20 μL. Compound dilutions were made in 100% DMSO (VWR Chemicals 23500.297) in a polypropylene plate in 3-fold dilution steps to give a final concentration range in the assay from 12.5 μM to […]. 0.25 μL compound dilutions (100% DMSO) were added to 9 μL MAGL in assay buffer (50 mM TRIS (GIBCO, 15567-027), 1 mM EDTA (Fluka, 03690-100 mL), 0.01% (v/v) Tween. After shaking, the plate was incubated for 15 min at RT. To start the reaction, 10 μL 2-arachidonoylglycerol in assay buffer was added. The final concentrations in the assay was […] and 8 μM 2-arachidonoylglyerol. After shaking and 30 min incubation at RT, the reaction was quenched by the addition of 40 μL of ACN containing 4 μM of d8-arachidonic acid. The amount of arachidonic acid was traced by an online SPE system (Agilent Rapidfire) coupled to a triple quadrupole mass spectrometer (Agilent 6460). A C18 SPE cartridge (G9205A) was used in an ACN/water liquid setup. The mass spectrometer was operated in negative electrospray mode following the mass transitions 303.1→259.1 for arachidonic acid and 311.1→267.0 for d8-arachidonic acid. The activity of the compounds was calculated based on the ratio of intensities [arachidonic acid/d8-arachidonic acid].
In general, IC50 refers to the point on the concentration scale where inhibition reaches its midpoint. Low readings indicate greater potency in that assay, high ones weaker potency in that assay. In turn, `O=C1CO[C@H]2CCN(C(=O)N3CC(c4ccc(C5CCOC5)cc4)C3)C[C@H]2N1` (single isomer, unassigned) [Example 1, (4aR,8aS)-6-[3-[4-[(3R or S)-Tetrahydrofuran-3-yl]phenyl]azetidine-1-carbonyl]-4,4a,5,7,8,8a-hexahydropyrido[4,3-b][1,4]oxazin-3-one] displayed an IC50 of 33.1 nM.

In turn, `O=C1CO[C@H]2CCN(C(=O)N3CC(c4ccc(C5CCOC5)cc4)C3)C[C@H]2N1` (single isomer, unassigned) [Example 2, (4aR,8aS)-6-[3-[4-[(3S or R)-Tetrahydrofuran-3-yl]phenyl]azetidine-1-carbonyl]-4,4a,5,7,8,8a-hexahydropyrido[4,3-b][1,4]oxazin-3-one] came in with an IC50 of 42 nM. This IC50 and that of the compound before are within 1.5-fold of each other.

For the compound `CC1C(OCc2c(F)cccc2C(F)(F)F)CN1C(=O)N1CC[C@@H]2OCC(=O)N[C@@H]2C1` (single isomer, unassigned) [Example 27], half-maximal inhibition (IC50) required 18.8 nM.

On to `CC1C(OCc2c(F)cccc2C(F)(F)F)CN1C(=O)N1CC[C@@H]2OCC(=O)N[C@@H]2C1` (single isomer, unassigned) [Example 28], for which the IC50 was found to be 342 nM. This IC50 is about 18-fold higher than that of the compound before.

As to `CC1C(OCc2c(F)cccc2C(F)(F)F)CN1C(=O)N1CC[C@@H]2OCC(=O)N[C@@H]2C1` (single isomer, unassigned) [Example 29], the IC50 came out at 406 nM.

Take `O=C1CO[C@H]2CCN(C(=O)N3CC(c4ccc(OC5CC(F)(F)C5)cc4)C3)C[C@H]2N1` [Example 3, (4aR,8aS)-6-[3-[4-(3,3-Difluorocyclobutoxy)phenyl]azetidine-1-carbonyl]-4,4a,5,7,8,8a-hexahydropyrido[4,3-b][1,4]oxazin-3-one]: the IC50 was 4.1 nM.

The compound `CC(C)Oc1ccc(C2CN(C(=O)N3CC[C@@H]4OCC(=O)N[C@@H]4C3)C2)cc1` [Example 4, (4aR,8aS)-6-[3-(4-Isopropoxyphenyl)azetidine-1-carbonyl]-4,4a,5,7,8,8a-hexahydropyrido[4,3-b][1,4]oxazin-3-one] displayed an IC50 of 7.1 nM. This IC50 is about 1.7-fold higher than that of the compound before.

`O=C1CO[C@H]2CCN(C(=O)N3CC(c4ccc(C5CCOCC5)cc4)C3)C[C@H]2N1` [Example 5, (4aR,8aS)-6-[3-(4-Tetrahydropyran-4-ylphenyl)azetidine-1-carbonyl]-4,4a,5,7,8,8a-hexahydropyrido[4,3-b][1,4]oxazin-3-one] came in with an IC50 of 6 nM.

`O=C1CO[C@H]2CCN(C(=O)N3CC(c4ccc(C5CC(F)(F)C5)cc4)C3)C[C@H]2N1` [Example 6, (4aR,8aS)-6-[3-[4-(3,3-Difluorocyclobutyl)phenyl]azetidine-1-carbonyl]-4,4a,5,7,8,8a-hexahydropyrido[4,3-b][1,4]oxazin-3-one] had an IC50 of 2.9 nM.

For `O=C1CO[C@H]2CCN(C(=O)N3CC(c4nsc(-c5ccc(Cl)cc5Cl)n4)C3)C[C@H]2N1` [Example 7, (4aR,8aS)-6-[3-[5-(2,4-Dichlorophenyl)-1,2,4-thiadiazol-3-yl]azetidine-1-carbonyl]-4,4a,5,7,8,8a-hexahydropyrido[4,3-b][1,4]oxazin-3-one], the IC50 worked out at 9.1 nM.

Consider `O=C1CO[C@H]2CCN(C(=O)N3CC(c4cn(-c5ccc(Cl)cc5Cl)cn4)C3)C[C@H]2N1` [Example 8, (4aR,8aS)-6-[3-[1-(2,4-Dichlorophenyl)imidazol-4-yl]azetidine-1-carbonyl]-4,4a,5,7,8,8a-hexahydropyrido[4,3-b][1,4]oxazin-3-one], for which the IC50 was determined as 38.8 nM. Against the preceding compound, the IC50 is about 4.3-fold higher.

`O=C1CO[C@H]2CCN(C(=O)N3CC(c4nc(-c5ccc(Cl)cc5C(F)(F)F)no4)C3)C[C@H]2N1` [Example 9, (4aR,8aS)-6-[3-[3-[4-Chloro-2-(trifluoromethyl)phenyl]-1,2,4-oxadiazol-5-yl]azetidine-1-carbonyl]-4,4a,5,7,8,8a-hexahydropyrido[4,3-b][1,4]oxazin-3-one] displayed an IC50 of 23.5 nM.

On to `CC1(C)CCc2cc(C3CN(C(=O)N4CC[C@@H]5OCC(=O)N[C@@H]5C4)C3)ccc2O1` [Example 10, (4aR,8aS)-6-(3-(2,2-Dimethylchroman-6-yl)azetidine-1-carbonyl)hexahydro-2H-pyrido[4,3-b][1,4]oxazin-3(4H)-one], for which the IC50 stood at 6 nM. This IC50 is about 3.9-fold lower than that of the compound before.

Turning to `CC(C)COc1ccc(C2CN(C(=O)N3CC[C@@H]4OCC(=O)N[C@@H]4C3)C2)cc1` [Example 11, (4aR,8aS)-6-(3-(4-Isobutoxyphenyl)azetidine-1-carbonyl)hexahydro-2H-pyrido[4,3-b][1,4]oxazin-3(4H)-one], the midpoint of inhibition, the IC50, lay at 1.5 nM.

With `CC(C)(Oc1ccc(C2CN(C(=O)N3CC[C@@H]4OCC(=O)N[C@@H]4C3)C2)cc1)C(F)(F)F` [Example 12, (4aR,8aS)-6-[3-[4-(2,2,2-Trifluoro-1,1-dimethyl-ethoxy)phenyl]azetidine-1-carbonyl]-4,4a,5,7,8,8a-hexahydropyrido[4,3-b][1,4]oxazin-3-one], 0.3 nM corresponded to half-maximal inhibition (IC50).

For `O=C1CO[C@H]2CCN(C(=O)N3CC(c4ccc(OC5CCCC5)cc4)C3)C[C@H]2N1` [Example 13, (4aR,8aS)-6-(3-(4-(Cyclopentyloxy)phenyl)azetidine-1-carbonyl)hexahydro-2H-pyrido[4,3-b][1,4]oxazin-3(4H)-one], inhibition was half-maximal at 0.6 nM (IC50).

With `CC1(C)CCOc2ccc(C3CN(C(=O)N4CC[C@@H]5OCC(=O)N[C@@H]5C4)C3)cc21` [Example 14, (4aR,8aS)-6-(3-(4,4-Dimethylchroman-6-yl)azetidine-1-carbonyl)hexahydro-2H-pyrido[4,3-b][1,4]oxazin-3(4H)-one], the midpoint of inhibition, the IC50, lay at 26.4 nM. Compared with the last compound, the IC50 is about 44-fold higher.

With `O=C1CO[C@H]2CCN(C(=O)N3CC(c4ccc(OCC5CC5)cc4)C3)C[C@H]2N1` [Example 15, (4aR,8aS)-6-(3-(4-(Cyclopropylmethoxy)phenyl)azetidine-1-carbonyl)hexahydro-2H-pyrido[4,3-b][1,4]oxazin-3(4H)-one], 8.7 nM corresponded to half-maximal inhibition (IC50).

`O=C1CO[C@H]2CCN(C(=O)N3CC(c4nc(-c5ccc(Cl)cc5Cl)no4)C3)C[C@H]2N1` [Example 16, (4aR,8aS)-6-[3-[3-(2,4-Dichlorophenyl)-1,2,4-oxadiazol-5-yl]azetidine-1-carbonyl]-4,4a,5,7,8,8a-hexahydropyrido[4,3-b][1,4]oxazin-3-one] yielded an IC50 of 24.5 nM.

On to `Cn1ncc2cc(C3CN(C(=O)N4CC[C@@H]5OCC(=O)N[C@@H]5C4)C3)ccc21` [Example 17, (4aR,8aS)-6-(3-(1-Methyl-1H-indazol-5-yl)azetidine-1-carbonyl)hexahydro-2H-pyrido[4,3-b][1,4]oxazin-3(4H)-one], for which the IC50 stood at 168 nM.

`O=C1CO[C@H]2CCN(C(=O)N3CC(c4noc(-c5ccc(Cl)cc5Cl)n4)C3)C[C@H]2N1` [Example 18, (4aR,8aS)-6-(3-(5-(2,4-Dichlorophenyl)-1,2,4-oxadiazol-3-yl)azetidine-1-carbonyl)hexahydro-2H-pyrido[4,3-b][1,4]oxazin-3(4H)-one] yielded an IC50 of 39.2 nM.

`O=C1CO[C@H]2CCN(C(=O)N3CC(c4cccc(OC(F)(F)F)c4)C3)C[C@H]2N1` [Example 19, (4aR,8aS)-6-(3-(3-(Trifluoromethoxy)phenyl)azetidine-1-carbonyl)hexahydro-2H-pyrido[4,3-b][1,4]oxazin-3(4H)-one] yielded an IC50 of 44.1 nM. The IC50 values of the last two compounds are within 1.5-fold of each other.

Values taken from patent publication US20210094973A1, “HETEROCYCLIC COMPOUNDS” (Hoffmann-La Roche Inc., priority 2019, published 2021).
